These results are taken from US9365523B2, “Imidazolyl amide compounds and uses related thereto” (priority 2011, dated 2016).

A value given as a limit tells only on which side of the number the result lay.

In this test the test system is MeV-Alaska. The test can be described thus: Antiviral activity of compound analogs against MeV-Alaska (tables 1-5). The format is cell-based, measles virus.

Usually EC50 stands for the concentration needed to bring the measured effect to its halfway point. A higher EC50 goes with lower potency in that assay. In the case of `COc1ccc(-n2c(SC(C)C(=O)Nc3ccc(C)c(Cl)c3)nc3ccccc32)cc1` (stereo not drawn) [Compound 21], the midpoint of the response (Table 1), the EC50, lay at 400 nM. Consider `Cc1ccc(NC(=O)C(C)Sc2nc3ccccc3n2C2CCNCC2)c(Cl)c1` (stereo not drawn) [Compound 92], for which, under “Table 2”, the EC50 was greater than 75000 nM. The molecule `CC(Sc1nc2ccccc2n1-c1ccc(O)cc1)C(=O)Nc1ncc(Cl)cc1Cl` (stereo not drawn) [Compound 103] registered an EC50 (Table 3) of 7700 nM. With `Cc1ccc(NC(=O)C(C)Sc2nc3ccccc3s2)c(Cl)c1` (stereo not drawn) [Compound 130], the EC50 (Measles morbillivirus, Table 5) was greater than 75000 nM.

Where the note is “Table 1”, `COc1ccc(-n2c(SC(C)C(=O)Nc3nccc(C)n3)nc3ccccc32)cc1` (stereo not drawn) [Compound 11] gave a concentration giving a half-maximal response (EC50) of 600 nM. In turn, `COc1ccc(-n2c(SC(C)C(=O)Nc3nc(C)nc(C)c3Cl)nc3ccccc32)cc1` (stereo not drawn) [Compound 30] had a concentration giving a half-maximal response (EC50) (Table 1) greater than 75000 nM. On the same count and under the same terms, under `COc1ccc(-n2c(SC(C)C(=O)Nc3nc(Cl)cc(Cl)n3)nc3ccccc32)cc1` (stereo not drawn) [Compound 44] stands greater than 75000 nM; under `COc1ccc(-n2c(SC(C)C(=O)Nc3c(Cl)cccc3Cl)nc3ccccc32)cc1` (stereo not drawn) [Compound 28], 2000 nM. Consider `CCC(Sc1nc2ccccc2n1-c1ccc(OC)cc1)C(=O)Nc1ncc(Cl)cc1Cl` (stereo not drawn) [Compound 131], for which the half-maximal effective concentration (EC50) (Measles morbillivirus, Table 5) is 12200 nM. Same read-out and setting: under `Cc1ccc(NC(=O)CSc2nc(-c3ccccc3)c(-c3ccccc3)n2Cc2ccc(F)cc2)c(Cl)c1` [Compound 168] stands greater than 75000 nM. On the same count and under the same terms, the same measure for `COc1ccc(-n2c(SC(C)C(=O)N3CCCCC3)nc3ccccc32)cc1` (stereo not drawn) [Compound 124]: greater than 75000 nM. The molecule `CC(Sc1nc2ccccc2n1C)C(=O)Nc1ncc(Cl)cc1Cl` (stereo not drawn) [Compound 113] yielded an EC50 (Table 3) greater than 10000 nM. Consider `Cc1ccc(NC(=O)C(C)Sc2nc3cccnc3n2-c2ccccc2)c(Cl)c1` (stereo not drawn) [Compound 146], for which, where the note is “Measles morbillivirus, Table 5”, a half-maximal effect (EC50) was put at 1200 nM. `COc1ccc(-n2c(SC(C)C(=O)Nc3cc(Br)ccc3Br)nc3ccccc32)cc1` (stereo not drawn) [Compound 2] showed an EC50 (Table 1) of 1700 nM. On to `CCOc1ccc(-n2c(SC(C)C(=O)Nc3ccc(C)cc3Cl)nc3ccccc32)cc1` (stereo not drawn) [Compound 73], for which the half-maximal effective concentration (EC50) (Table 2) was 50 nM. That is a double-digit nanomolar value. `Cc1ccc(NC(=O)C(C)Sc2nc3ccccc3n2-c2ccc(CN(C)C)cc2)c(Cl)c1` (stereo not drawn) [Compound 98] came in with an EC50 (Table 2) of 1400 nM. This EC50 is about 28-fold higher than that of the molecule before.

Take `Cc1ccc(NC(=O)C(C)Sc2nc3ccccc3n2-c2ccc(O)cc2)c(Cl)c1` (stereo not drawn) [Compound 76]: the 50% effective concentration (EC50) (Table 2) worked out at 3800 nM.

Regarding `O=C(CSc1nnc(Br)n1-c1ccc(C2CC2)c2ccccc12)Nc1ccc(C(=O)O)cc1Cl` [RDEA-806, 4-(2-((5-bromo-4-(4-cyclopropylnaphthalen-1-yl)-4H-1,2,4-triazol-3-yl)thio)acetamido)-3-chlorobenzoic acid, reference compound], the MeV inhibitory activity entry (in our assays) was “lacks MeV inhibitory activity”.

For the setting “Table 2”, `Cc1ccc(NC(=O)C(C)Sc2nc3ccccc3n2-c2cccc(CN3CCN(C)CC3)c2)c(Cl)c1` (stereo not drawn) [Compound 65] came in with a 50% effective concentration (EC50) of 1300 nM. `COc1ccc(Cn2c(SC(C)C(=O)Nc3ccc(C)cc3Cl)nc3ccccc32)cc1` (stereo not drawn) [Compound 85] yielded an EC50 (Table 2) of 400 nM.

Take `Cc1ccc(NC(=O)C(C)Sc2nc3ccccc3n2-c2ccccc2CN2CCN(C)CC2)c(Cl)c1` (stereo not drawn) [Compound 67]: the EC50 (Table 2) was 180 nM.

`Cc1cnc(NC(=O)C(C)Sc2nc3ccccc3n2-c2ccc(F)cc2)c(Cl)c1` (stereo not drawn) [Compound 116] came in with an EC50 (Table 3) of 800 nM. `COc1ccc(-n2c(SC(C)C(=O)Nc3ccccc3)nc3ccccc32)cc1` (stereo not drawn) [Compound 25] yielded an EC50 (Table 1) of 900 nM.

The molecule `COc1ccc(-n2c(SC(C)C(=O)Nc3nc(C)c(Br)cc3Br)nc3ccccc32)cc1` (stereo not drawn) [Compound 41] gave an EC50 (Table 1) of 500 nM. This EC50 lies about 1.8-fold lower than the previous one. For the setting “Table 1”, `COc1ccc(-n2c(SC(C)C(=O)Nc3ccc(C)cc3C)nc3ccccc32)cc1` (stereo not drawn) [Compound 45] returned an EC50 of 1100 nM.

Where the note is “Table 1”, `COc1ccc(-n2c(SC(C)C(=O)Nc3ccc(Cl)cc3Cl)nc3ccccc32)cc1` (stereo not drawn) [Compound 12] showed a concentration giving a half-maximal response (EC50) of 400 nM. Against the preceding molecule, the EC50 is about 2.8-fold lower. Where the note is “Measles morbillivirus, Table 5”, `COc1ccc(Cn2c(CC(C)NC(=O)c3ccc(Cl)cc3Cl)nc3ccccc32)cc1` (stereo not drawn) [Compound 136] showed an EC50 greater than 75000 nM. Same read-out and setting: under `Cc1ccc(NC(=O)CSc2nc3cc(C)c(C)cc3n2Cc2ccc(F)cc2)c(Cl)c1` [Compound 144] stands greater than 75000 nM; under `COc1ccc(-n2c(SC(C)C(=O)Nc3ccc(C)cc3Cl)nc3cccnc32)cc1` (stereo not drawn) [Compound 154], 1600 nM.

Take `COc1ccc(-n2c(CCC(=O)Nc3ccc(C)cc3Cl)nc3ccccc32)cc1` [Compound 159]: under “Measles morbillivirus, Table 5”, the concentration giving a half-maximal response (EC50) is greater than 150000 nM.

`Cc1ccc(NC(=O)C(C)Sc2nc3ccccc3n2-c2ccccc2)c(Cl)c1` (stereo not drawn) [Compound 72] registered a concentration for a half-maximal effect (EC50) (Table 2) of 90 nM. Molecule `COc1ccc(-n2c(SC(C)C(=O)Nc3cccc(Cl)c3)nc3ccccc32)cc1` (stereo not drawn) [Compound 14] had an EC50 (Table 1) of 500 nM. Where the note is “Measles morbillivirus, Table 5”, `COc1ccc(Cn2c(CCC(=O)Nc3ccc(Cl)cc3Cl)nc3ccccc32)cc1` [Compound 160] displayed an EC50 greater than 75000 nM.

`COc1ccc(-n2c(SC(C)C(=O)Nc3ccc(NC(C)=O)c(C)c3)nc3ccccc32)cc1` (stereo not drawn) [Compound 17] returned an EC50 (Table 1) greater than 9300 nM. Molecule `COc1cccc(-n2c(SC(C)C(=O)Nc3ncc(C)cc3Cl)nc3ccccc32)c1` (stereo not drawn) [Compound 108] yielded a 50% effective concentration (EC50) (Table 3) of 400 nM. Under “Measles morbillivirus, Table 5”, `Cc1ccc(NC(=O)C(C)(C)Sc2nc3ccccc3n2-c2ccccc2)c(Cl)c1` [Compound 170] displayed a concentration giving a half-maximal response (EC50) greater than 75000 nM. Still for that read-out and setting: the same measure for `Cc1cccc(-n2c(SC/C=C/c3ccccc3)nc3ccccc32)c1` [Compound 166]: greater than 10000 nM; for `Cc1ccc(NC(=O)C(C)Sc2nc3ccccc3n2Cc2ccccc2)c(Cl)c1` (stereo not drawn) [Compound 148]: greater than 75000 nM. Turning to `COc1cc(OC)cc(-n2c(SC(C)C(=O)Nc3ccc(C)cc3Cl)nc3ccccc32)c1` (stereo not drawn) [Compound 87], the concentration giving a half-maximal response (EC50) (Table 2) stood at 400 nM. Still for that read-out and setting: under `Cc1ccc(NC(=O)C(C)Sc2nc3ccccc3n2-c2cccc(CN3CCOCC3)c2)c(Cl)c1` (stereo not drawn) [Compound 83] stands 270 nM.

The molecule `COc1ccc(-n2c(SC(C)C(=O)Nc3ncc(C)cc3Cl)nc3ccccc32)cc1` (stereo not drawn) [Compound 5] registered an EC50 (Table 1) of 40 nM. `COc1cccc(-n2c(SC(C)C(=O)Nc3ccc(C)cc3Cl)nc3ccccc32)c1` (stereo not drawn) [Compound 71] returned a half-maximal effective concentration (EC50) (Table 2) of 600 nM. `Cc1ccc(NC(=O)C(C)Sc2nc3ccccc3n2-c2ccc(CCO)cc2)c(Cl)c1` (stereo not drawn) [Compound 64] showed an EC50 (Table 2) of 2500 nM. For `COc1ccc(-n2c(SC(C)C(=O)Nc3ncc(Cl)cc3Cl)nc3ccccc32)cc1` (stereo not drawn) [Compound 1], the EC50 (Table 1) is 300 nM. The molecule `Cc1ccc(NC(=O)C(C)Sc2nc3cc(C)c(C)cc3n2Cc2ccc(F)cc2)c(Cl)c1` (stereo not drawn) [Compound 129] had a 50% effective concentration (EC50) (Measles morbillivirus, Table 5) of 2100 nM. The same measure, in the same setting: under `Cc1ccc(NC(=O)C(C)Sc2cc3ccccc3n2-c2ccccc2)c(Cl)c1` (stereo not drawn) [Compound 173] stands greater than 9300 nM. As for `Cc1ccc(NC(=O)C(C)Sc2nc3ccccc3n2-c2ccc(N3CCOCC3)cc2)c(Cl)c1` (stereo not drawn) [Compound 84], under “Table 2”, the response was half-maximal at 300 nM (EC50).

Regarding `COc1ccc(-n2c(SC(C)C(=O)Nc3ccccc3Cl)nc3ccccc32)cc1` (stereo not drawn) [Compound 50], where the note is “Table 1”, the EC50 is 140 nM. That is a sub-micromolar value.

`Cc1ccc(NC(=O)C(C)Sc2nc3ccccc3n2-c2ccc(CN3CCN(C)CC3)cc2)c(Cl)c1` (stereo not drawn) [Compound 63] returned an EC50 (Table 2) of 4900 nM.

Consider `Cc1ccc(-n2c(SC(C)(C)C(=O)Nc3ccc(C)cc3Cl)nc3ccccc32)cc1` [Compound 145], for which, under “Measles morbillivirus, Table 5”, the EC50 is greater than 75000 nM. The same measure, in the same setting: the same measure for `Cc1ccc(NC(=O)/C=C/c2nc3ccccc3n2-c2ccccc2)c(Cl)c1` [Compound 162]: greater than 75000 nM. The molecule `COc1ccc(-n2c(SC(C)C(=O)Nc3nnc(C)c(C)n3)nc3ccccc32)cc1` (stereo not drawn) [Compound 6] gave a concentration for a half-maximal effect (EC50) (Table 1) of 16600 nM. On the same count and under the same terms, under `COc1ccc(-n2c(SC(C)C(=O)Nc3ccc(C#N)cn3)nc3ccccc32)cc1` (stereo not drawn) [Compound 26] stands greater than 75000 nM. `COC(=O)COc1ccc(-n2c(SC(C)C(=O)Nc3ccc(C)cc3Cl)nc3ccccc32)cc1` (stereo not drawn) [Compound 69]: the EC50 (Table 2) was greater than 9300 nM. `COc1ccc(-n2c(SC(C)C(=O)Nc3cc(C)on3)nc3ccccc32)cc1` (stereo not drawn) [Compound 55] gave a concentration giving a half-maximal response (EC50) (Table 1) of 490 nM. Consider `Cc1ccc(NC(=O)C(C)Sc2nc(-c3ccccc3)c(-c3ccccc3)[nH]2)c(Cl)c1` (stereo not drawn) [Compound 152], for which the EC50 (Measles morbillivirus, Table 5) is greater than 75000 nM. The molecule `CCOc1ccc(-n2c(SC(C)C(=O)Nc3cc(C)cc(C)n3)nc3ccccc32)cc1` (stereo not drawn) [Compound 115] yielded a 50% effective concentration (EC50) (Table 3) of 1500 nM. This counts as single-digit micromolar. `COc1ccc(-n2c(/C=C/C(=O)Nc3ccc(C)cc3Cl)nc3ccccc32)cc1` [Compound 161] displayed an EC50 (Measles morbillivirus, Table 5) greater than 75000 nM.

`COc1ccc(-n2c(SC(C)C(=O)Nc3ccc(Cl)cn3)nc3ccccc32)cc1` (stereo not drawn) [Compound 38] yielded an EC50 (Table 1) of 11500 nM. On the same count and under the same terms, the same measure for `COc1ccc(-n2c(SC(C)C(=O)Nc3cccnc3)nc3ccccc32)cc1` (stereo not drawn) [Compound 23]: 8400 nM.

With `Cc1ccc(N(Cc2ccc(F)cc2)C(=O)CSc2nc(-c3ccccc3)c(-c3ccccc3)n2Cc2ccc(F)cc2)c(Cl)c1` [Compound 143], under “Measles morbillivirus, Table 5”, the concentration for a half-maximal effect (EC50) is greater than 75000 nM. On to `COc1ccc(-n2c(SC(C)C(=O)Nc3nc(C)cc(Cl)n3)nc3ccccc32)cc1` (stereo not drawn) [Compound 7], for which the half-maximal effective concentration (EC50) (Table 1) is greater than 150000 nM. For the setting “Measles morbillivirus, Table 5”, `CCOC(=O)c1ccc2[nH]c(SC(C)C(=O)Nc3ccc(C)cc3Cl)nc2c1` (stereo not drawn) [Compound 126] registered a concentration for a half-maximal effect (EC50) greater than 75000 nM.

Molecule `COc1ccc(-n2c(SC(C)C(=O)Nc3cc(Cl)ccc3Cl)nc3ccccc32)cc1` (stereo not drawn) [Compound 46] showed an EC50 (Table 1) of 500 nM. The same measure, in the same setting: under `COc1ccc(-n2c(SC(C)C(=O)Nc3ccc(Cl)c(C)c3)nc3ccccc32)cc1` (stereo not drawn) [Compound 40] stands 6700 nM. Molecule `CC(Sc1nc2ccccc2n1-c1ccc(F)cc1)C(=O)Nc1ncc(Cl)cc1Cl` (stereo not drawn) [Compound 101] had an EC50 (Table 3) of 300 nM. This lies in the sub-micromolar range. `COc1ccc(-n2c(SC(C)C(=O)Nc3ncccn3)nc3ccccc32)cc1` (stereo not drawn) [Compound 29] gave an EC50 (Table 1) of 2000 nM. Regarding `Cc1cccc(-n2c(SC(C)C(=O)Nc3ncc(C)cc3Cl)nc3ccccc32)c1` (stereo not drawn) [Compound 119], under “Table 3”, the EC50 came to 90 nM. Turning to `COc1ccc(-n2c(S(=O)(=O)CC(=O)Nc3ccc(C)cc3Cl)nc3ccccc32)cc1` [Compound 141], the EC50 (Measles morbillivirus, Table 5) is greater than 75000 nM. `COc1cc(OC)cc(-n2c(SC(C)C(=O)Nc3ncc(C)cc3Cl)nc3ccccc32)c1` (stereo not drawn) [Compound 118] gave an EC50 (Table 3) of 800 nM. Molecule `COc1ccc(-n2c(SC(C)C(=O)Nc3cccc([N+](=O)[O-])c3)nc3ccccc32)cc1` (stereo not drawn) [Compound 33] registered a concentration for a half-maximal effect (EC50) (Table 1) of 4600 nM. Still for that read-out and setting: under `COc1ccc(-n2c(SC(C)C(=O)NC3CCCCC3)nc3ccccc32)cc1` (stereo not drawn) [Compound 9] stands greater than 75000 nM.
